Reference: ChEMBL document CHEMBL3751687, “Design and synthesis of calindol derivatives as potent and selective calcium sensing receptor agonists” (Bioorg Med Chem, 2016)
Activity calls are given as the source filed them. The calls are words filed in the database; no cut-off is given here.

Columns and labels:
[1] = biological target: T1, Extracellular calcium-sensing receptor (Rattus norvegicus) (UniProt P48442); assay: Agonist activity at rat brain CaSR expressed in CHO cells assessed as inositol phosphate production at 3 uM in presence of 3 mM extracellular Ca2+ by IP-one assay; assay type: functional, cell-based
T1 sequence (whole entry): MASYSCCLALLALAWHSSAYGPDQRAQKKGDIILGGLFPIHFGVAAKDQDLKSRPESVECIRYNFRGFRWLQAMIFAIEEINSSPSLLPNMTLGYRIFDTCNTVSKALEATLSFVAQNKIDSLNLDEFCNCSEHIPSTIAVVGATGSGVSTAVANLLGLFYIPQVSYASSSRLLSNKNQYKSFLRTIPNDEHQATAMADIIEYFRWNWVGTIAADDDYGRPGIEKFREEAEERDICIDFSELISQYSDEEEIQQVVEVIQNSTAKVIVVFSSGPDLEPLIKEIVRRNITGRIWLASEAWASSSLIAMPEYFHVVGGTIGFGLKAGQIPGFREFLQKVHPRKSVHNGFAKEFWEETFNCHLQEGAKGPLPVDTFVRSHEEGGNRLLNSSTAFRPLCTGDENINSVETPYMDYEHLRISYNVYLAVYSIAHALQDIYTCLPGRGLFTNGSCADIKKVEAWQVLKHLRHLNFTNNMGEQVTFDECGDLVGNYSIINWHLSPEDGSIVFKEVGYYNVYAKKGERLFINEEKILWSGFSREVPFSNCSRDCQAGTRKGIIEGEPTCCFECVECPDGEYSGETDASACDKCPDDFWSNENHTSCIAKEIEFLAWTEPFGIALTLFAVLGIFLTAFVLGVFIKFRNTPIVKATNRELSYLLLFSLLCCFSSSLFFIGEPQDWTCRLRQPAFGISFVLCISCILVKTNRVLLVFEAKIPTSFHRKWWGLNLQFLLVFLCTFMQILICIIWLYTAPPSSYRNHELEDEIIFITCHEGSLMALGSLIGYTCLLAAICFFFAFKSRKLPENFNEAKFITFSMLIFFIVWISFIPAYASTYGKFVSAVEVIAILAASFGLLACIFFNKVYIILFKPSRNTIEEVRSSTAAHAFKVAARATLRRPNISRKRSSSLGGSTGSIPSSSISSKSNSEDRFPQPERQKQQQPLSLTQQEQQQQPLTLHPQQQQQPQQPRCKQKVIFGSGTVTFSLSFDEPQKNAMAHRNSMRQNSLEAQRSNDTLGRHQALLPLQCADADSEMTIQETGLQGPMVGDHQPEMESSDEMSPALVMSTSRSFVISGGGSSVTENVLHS

[2] = biological target: T2, Extracellular calcium-sensing receptor (Rattus norvegicus, UniProt P48442); assay: Agonist activity at rat brain CaSR expressed in CHO cells assessed as inositol phosphate production in presence of 3 mM extracellular Ca2+ by IP-one assay; assay type: functional, cell-based
T2 sequence (P48442 whole entry): T1 sequence (whole entry)

[3] = biological target: T1, Extracellular calcium-sensing receptor (Rattus norvegicus); assay: Agonist activity at rat brain CaSR expressed in CHO cells assessed as inositol phosphate production at 10 uM in presence of 2 mM extracellular Ca2+ by IP-one assay; assay type: functional, cell-based
[4] = biological target: T1, Extracellular calcium-sensing receptor (Rattus norvegicus); assay: Agonist activity at rat brain CaSR expressed in CHO cells assessed as inositol phosphate production at 3 uM in presence of 2 mM extracellular Ca2+ by IP-one assay; assay type: functional, cell-based
[5] = biological target: T1, Extracellular calcium-sensing receptor (Rattus norvegicus); assay: Agonist activity at rat brain CaSR expressed in CHO cells assessed as inositol phosphate production at 10 uM in presence of 3 mM extracellular Ca2+ by IP-one assay; assay type: functional, cell-based
[6] = biological target: T3, G-protein coupled receptor family C group 6 member A (Mus musculus) (UniProt Q8K4Z6); assay: Inhibition of L-Ornithine-stimulated wild type mouse GPRC6A expressed in HEK293 cells coexpressing GalphaqG66D assessed as increase in [3H] inositol phosphate production at 10 uM incubated for 30 mins in presence of 2 mM extracellular Ca2+; assay type: functional, cell-based
T3 sequence (whole entry): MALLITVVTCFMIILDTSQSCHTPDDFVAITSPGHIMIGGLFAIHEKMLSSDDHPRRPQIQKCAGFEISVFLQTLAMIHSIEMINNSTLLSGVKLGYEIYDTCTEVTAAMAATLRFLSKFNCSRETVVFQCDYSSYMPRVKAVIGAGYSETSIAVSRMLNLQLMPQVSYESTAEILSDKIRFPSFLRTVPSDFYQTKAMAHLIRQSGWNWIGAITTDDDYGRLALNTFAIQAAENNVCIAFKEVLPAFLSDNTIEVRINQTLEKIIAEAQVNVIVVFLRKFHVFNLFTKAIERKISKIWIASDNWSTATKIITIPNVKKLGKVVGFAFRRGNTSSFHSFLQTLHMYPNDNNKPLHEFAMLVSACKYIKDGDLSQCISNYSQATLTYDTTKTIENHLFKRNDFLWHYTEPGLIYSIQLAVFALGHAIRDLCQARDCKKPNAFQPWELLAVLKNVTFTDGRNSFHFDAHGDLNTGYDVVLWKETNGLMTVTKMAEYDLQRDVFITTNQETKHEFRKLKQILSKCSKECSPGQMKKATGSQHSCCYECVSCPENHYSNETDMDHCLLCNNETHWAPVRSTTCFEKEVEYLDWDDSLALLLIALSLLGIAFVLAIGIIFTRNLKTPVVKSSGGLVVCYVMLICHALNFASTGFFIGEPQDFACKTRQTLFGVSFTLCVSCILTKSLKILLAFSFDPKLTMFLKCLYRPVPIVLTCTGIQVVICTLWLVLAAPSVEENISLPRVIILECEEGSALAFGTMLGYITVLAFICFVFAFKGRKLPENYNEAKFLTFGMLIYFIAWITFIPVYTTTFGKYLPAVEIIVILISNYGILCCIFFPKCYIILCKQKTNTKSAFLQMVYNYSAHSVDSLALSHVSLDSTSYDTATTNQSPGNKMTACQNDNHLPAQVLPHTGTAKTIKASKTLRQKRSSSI

[7] = biological target: T1, Extracellular calcium-sensing receptor (Rattus norvegicus); assay: Agonist activity at rat brain CaSR expressed in CHO cells assessed as inositol phosphate production at 0.1 uM in presence of 3 mM extracellular Ca2+ by IP-one assay; assay type: functional, cell-based
HEK293 = assay: Effect on inositol phosphate production in HEK293 cells in absence of L-Ornithine; assay type: ADME, cell-based; details: human

Activity [1] [%]	Activity [3] [%]	SMILES	further results
–	95	COc1cccc2[nH]c(CN[C@H](C)c3cccc4ccccc34)cc12	Activity [4]: 63%
2	–	CC(NCc1cc2ccccc2[nH]1)c1ccc(-c2ccccc2)cc1 (racemic)	Activity [5]: 1%
40	–	COc1cc2cc(CN[C@H](C)c3cccc4ccccc34)[nH]c2c(OC)c1OC	–
–	54	COc1cccc([C@@H](C)NCc2cc3ccccc3[nH]2)c1	–
30	–	C[C@@H](NCc1cc2ccccc2[nH]1)c1ccc(F)cc1	–
55	–	C[C@@H](NCc1cc2cccc(O)c2[nH]1)c1cccc2ccccc12	Activity [5]: 83%
85	–	C[C@@H](NCc1cc2c(-c3ccccc3)cccc2[nH]1)c1cccc2ccccc12	inhibition [6]: inactive; EC50 [2]: 136 nM; Activity [5]: 102%; Activity (HEK293): Non-toxic
–	69	Cc1ccc2[nH]c(CN[C@H](C)c3cccc4ccccc34)cc2c1	Activity [4]: 1%
26	–	C[C@@H](NCc1cc2ccccc2[nH]1)c1ccc(Br)cc1	–

Second part, the molecule before the results:

SMILES	Activity [1] [%]	Activity [3] [%]	further results
C[C@@H](NCc1cc2cccc(-c3ccccc3)c2[nH]1)c1cccc2ccccc12	79	–	–
C[C@@H](NCc1cc2cc(O)ccc2[nH]1)c1cccc2ccccc12	92	–	EC50 [2]: 112 nM
COc1ccc2cc(CN[C@H](C)c3cccc4ccccc34)[nH]c2c1	–	76	Activity [4]: 33%
C[C@@H](NCc1[nH]c2ccccc2c1Br)c1cccc2ccccc12	21	–	–
COc1cc(OC)c2cc(CN[C@H](C)c3cccc4ccccc34)[nH]c2c1	–	94	Activity [4]: 53%
C[C@@H](NCc1[nH]c2ccccc2c1-c1ccccc1)c1cccc2ccccc12	–	–	Activity [5]: 55%
C[C@@H](NCc1cc2c(O)cccc2[nH]1)c1cccc2ccccc12	88	–	EC50 [2]: 102 nM
COc1ccc([C@@H](C)NCc2cc3ccccc3[nH]2)cc1	–	27	–
C[C@@H](NC1CCCc2c1[nH]c1ccccc21)c1cccc2ccccc12 (mixture of isomers)	–	–	Activity [5]: 67%
C[C@@H](NCc1cc2cc(F)ccc2[nH]1)c1cccc2ccccc12	–	74	Activity [4]: 30%
C[C@@H](NCc1cc2ccccc2[nH]1)c1ccccc1	–	34	–
C[C@@H](NCc1cc2cccc([N+](=O)[O-])c2[nH]1)c1cccc2ccccc12	102	–	inhibition [6]: inactive; EC50 [2]: 20 nM; Activity [7]: 70%; Activity (HEK293): Non-toxic
C[C@@H](NCc1cc2ccccc2[nH]1)c1cccc2ccccc12 [CALINDOL]	83	103	inhibition [6]: 35%; EC50 [2]: 132 nM; Activity [5]: 100%; Activity [4]: 73%
Cc1ccc([C@@H](C)NCc2cc3ccccc3[nH]2)cc1	–	29	–
C[C@@H](NCc1cc2cc(S(C)(=O)=O)ccc2[nH]1)c1cccc2ccccc12	54	–	–
CC(NCc1cc2ccccc2[nH]1)c1ccc(F)c2ccccc12 (racemic)	89	–	inhibition [6]: inactive; EC50 [2]: 131 nM; Activity (HEK293): Non-toxic
C[C@@H](NCc1cc2cc(OCc3ccccc3)ccc2[nH]1)c1cccc2ccccc12	23	–	–
C[C@@H](NCc1cc2cc([N+](=O)[O-])ccc2[nH]1)c1cccc2ccccc12	30	–	–
CC(NCc1cc2ccccc2[nH]1)c1cccc(Br)c1 (racemic)	49	–	–
CC(NCc1cc2ccccc2[nH]1)c1ccccc1O (racemic)	1	–	Activity [5]: 1%
